From the supplement of paper PMC11061612

Tests used:
Experiment in all cases: Bliss excess, mean over the matrix (fraction); higher = more synergy
[1] = test system: CAL-62 (Thyroid Gland Carcinoma)
Procedure, shortened: (§1)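 Bliss excess equals the observed combination effect minus the expected value EA + EB − EA·EB, where EA and EB are the effects of each agent alone. Combination Emax is the second-highest inhibition within the matrix. Inhibition was scaled from CellTiter-Glo 2.0 luminescence, with 0 set by vehicle wells and 1 by blank wells, after 72 hours of two-drug dosing of cells plated in 1536-well plates.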

[2] = test system: COLO-680N (Esophageal Squamous Cell Carcinoma)
Procedure, shortened: as §1

[3] = test system: HSC-39 (Gastric Carcinoma)
Procedure, shortened: as §1

[4] = test system: L-1236 (Hodgkin's Lymphoma)
Procedure, shortened: as §1

[5] = test system: LK-2 (Squamous Cell Lung Carcinoma)
Procedure, shortened: as §1

[6] = test system: MFE-280 (Endometrial Carcinoma)
Procedure, shortened: as §1

[7] = test system: MKN45 (Gastric Carcinoma)
Procedure, shortened: as §1

NB12 (Neuroblastoma) = test system: NB12 (Neuroblastoma)
Procedure, shortened: as §1

[8] = test system: NCI-H2342 (Lung Adenocarcinoma)
Procedure, shortened: as §1

[9] = test system: OPM-2 (Plasma Cell Myeloma)
Procedure, shortened: as §1

[10] = test system: OVMIU (Ovarian Carcinoma)
Procedure, shortened: as §1

[11] = test system: PANC-03-27 (Pancreatic Carcinoma)
Procedure, shortened: as §1

[12] = test system: PC-3_[JPC-3] (Lung Adenocarcinoma)
Procedure, shortened: as §1

[13] = test system: RCM-1 (Colorectal Carcinoma)
Procedure, shortened: as §1

[14] = test system: RKN (Other Solid Carcinomas)
Procedure, shortened: as §1

[15] = test system: SHP-77 (Small Cell Lung Carcinoma)
Procedure, shortened: as §1

SK-MEL-2 (Melanoma) = test system: SK-MEL-2 (Melanoma)
Procedure, shortened: as §1

[16] = test system: SK-PN-DW (Other Solid Carcinomas)
Procedure, shortened: as §1

[17] = test system: TE-8 (Esophageal Squamous Cell Carcinoma)
Procedure, shortened: as §1

[18] = test system: VAL (B-Cell Non-Hodgkin's Lymphoma)
Procedure, shortened: as §1

Row | SMILES | Bliss excess [1] | Bliss excess [2] | Bliss excess [3] | Bliss excess [4] | Bliss excess [5] | Bliss excess [6] | Bliss excess [7] | Bliss excess (NB12 (Neuroblastoma)) | Bliss excess [8] | Bliss excess [9] | Bliss excess [10] | Bliss excess [11] | Bliss excess [12] | Bliss excess [13] | Bliss excess [14] | Bliss excess [15] | Bliss excess (SK-MEL-2 (Melanoma)) | Bliss excess [16] | Bliss excess [17] | Bliss excess [18]
1 | C=CCn1c(=O)c2cnc(Nc3ccc(N4CCN(C)CC4)cc3)nc2n1-c1cccc(C(C)(C)O)n1 [AZD1775] + CCc1c2c(nc3ccc(O)cc13)-c1cc3c(c(=O)n1C2)COC(=O)[C@]3(O)CC [SN-38] (first compound max 1 µM, partner max 0.3 µM) | -0.0489 | -0.0066 | -0.0065 | -0.0372 | 0.0768 | -0.0149 | -0.0893 | -0.0514 | 0.0025 | 0.0117 | -0.055 | -0.0585 | -0.0575 | -0.0402 | 0.0378 | -0.0315 | 0.0426 | -0.0903 | 0.0659 | -0.0619
2 | C=CCn1c(=O)c2cnc(Nc3ccc(N4CCN(C)CC4)cc3)nc2n1-c1cccc(C(C)(C)O)n1 [AZD1775] + Nc1ccn([C@@H]2O[C@H](CO)[C@@H](O)C2(F)F)c(=O)n1 [Gemcitabine] (first compound max 1 µM, partner max 0.3 µM) | -0.0162 | 0.0195 | 0.0379 | -0.0076 | 0.117 | -0.0175 | -0.116 | 0.0471 | 0.0724 | 0.0255 | -0.025 | -0.0383 | -0.035 | 0.0233 | 0.0082 | 0.0032 | -0.0156 | -0.0347 | -0.0247 | 
3 | CN(CCO)CC[C@H](CSc1ccccc1)Nc1ccc(S(=O)(=O)NC(=O)c2ccc(N3CCC([C@@H](O)c4ccccc4-c4ccc(Cl)cc4)CC3)cc2)cc1S(=O)(=O)C(F)(F)F [AZD4320] + CC(=O)O[C@H]1C(=O)[C@@]2(C)[C@H]([C@H](OC(=O)c3ccccc3)[C@]3(O)C[C@H](OC(=O)[C@H](O)[C@@H](NC(=O)c4ccccc4)c4ccccc4)C(C)=C1C3(C)C)[C@]1(OC(C)=O)CO[C@@H]1C[C@@H]2O [Paclitaxel] (first compound max 1 µM, 7x7, partner max 3 µM) | 0.0036 | 0.092 | 0.0069 | 0.0186 | 0.0318 | 0.171 | -0.121 | 0.0333 | 0.0455 | 0.023 | 0.0232 | 0.0599 | 0.0232 | 0.0793 | 0.0901 | -0.0369 | 0.148 | 0.0738 | 0.0954 | 0.0018
4 | CN(CCO)CC[C@H](CSc1ccccc1)Nc1ccc(S(=O)(=O)NC(=O)c2ccc(N3CCC([C@@H](O)c4ccccc4-c4ccc(Cl)cc4)CC3)cc2)cc1S(=O)(=O)C(F)(F)F [AZD4320] + CS(=O)(=O)CCNCc1ccc(-c2ccc3ncnc(Nc4ccc(OCc5cccc(F)c5)c(Cl)c4)c3c2)o1 [Lapatinib] (first compound max 1 µM, 7x7, partner max 10 µM) | 0.0444 | -0.0042 | 0.0057 | -0.0252 | 0.0876 | 0.0411 | -0.0888 | 0.0902 | -0.0137 | 0.0503 | 0.106 | 0.023 | -0.0108 | 0.0202 | -0.0121 | 0.159 | -0.0501 | -0.0829 | 0.0281 | 0.0503
5 | CN(CCO)CC[C@H](CSc1ccccc1)Nc1ccc(S(=O)(=O)NC(=O)c2ccc(N3CCC([C@@H](O)c4ccccc4-c4ccc(Cl)cc4)CC3)cc2)cc1S(=O)(=O)C(F)(F)F [AZD4320] + Nc1ccn([C@@H]2O[C@H](CO)[C@@H](O)C2(F)F)c(=O)n1 [Gemcitabine] (first compound max 1 µM, 7x7, partner max 0.3 µM) | 0.0487 | -0.08 | -0.0867 | -0.0377 | 0.083 | -0.0216 | -0.0393 | 0.0268 | 0.0364 | 0.0089 | 0.0028 | -0.0203 | 0.016 | -0.0271 | -0.0164 | 0.0333 | -0.0453 | -0.0422 | 0.0054 | -0.0044
6 | Cc1c2c(nn1C)CSCc1cc(n(C)n1)CSc1cc(c3ccccc3c1)OCCCc1c(C(=O)O)n(C)c3c-2c(Cl)ccc13 [AZD5991] + CC(=O)O[C@H]1C(=O)[C@@]2(C)[C@H]([C@H](OC(=O)c3ccccc3)[C@]3(O)C[C@H](OC(=O)[C@H](O)[C@@H](NC(=O)c4ccccc4)c4ccccc4)C(C)=C1C3(C)C)[C@]1(OC(C)=O)CO[C@@H]1C[C@@H]2O [Paclitaxel] (first compound max 1 µM, 7x7, partner max 3 µM) | -0.0941 | 0.0107 | 0.0078 | -0.0631 | 0.0165 | -0.0363 | -0.0238 | -0.0424 | 0.082 | 0.0072 | 0.0231 | 0.0181 | -0.0256 | 0.0336 | -0.0775 | -0.0043 | -0.0341 | -0.0012 | -0.0041 | -0.0913
7 | Cc1c2c(nn1C)CSCc1cc(n(C)n1)CSc1cc(c3ccccc3c1)OCCCc1c(C(=O)O)n(C)c3c-2c(Cl)ccc13 [AZD5991] + CS(=O)(=O)CCNCc1ccc(-c2ccc3ncnc(Nc4ccc(OCc5cccc(F)c5)c(Cl)c4)c3c2)o1 [Lapatinib] (first compound max 1 µM, 7x7, partner max 10 µM) | -0.0118 | -0.011 | -0.0305 | 0.102 | -0.019 | -0.012 | -0.146 | -0.0394 | 0.012 | -0.0145 | 0.0371 | -0.0485 | 0.0072 | 0.0137 | -0.0174 | 0.0045 | -0.0147 | 0.0081 | 0.0014 | -0.137
8 | Cc1c2c(nn1C)CSCc1cc(n(C)n1)CSc1cc(c3ccccc3c1)OCCCc1c(C(=O)O)n(C)c3c-2c(Cl)ccc13 [AZD5991] + Nc1ccn([C@@H]2O[C@H](CO)[C@@H](O)C2(F)F)c(=O)n1 [Gemcitabine] (first compound max 1 µM, 7x7, partner max 0.3 µM) | -0.024 | -0.0215 | 0.006 | -0.0646 | 0.0117 | -0.0363 | -0.0655 | 0.0008 | 0.0488 | 0.0109 | -0.0823 | 0.0182 | -0.0333 | 0.0164 | -0.0708 | 0.0181 | -0.0657 | 0.008 | -0.0682 | -0.0324
9 | C[C@@H]1COCCN1c1cc(C2([S@](C)(=N)=O)CC2)nc(-c2ccnc3[nH]ccc23)n1 [AZD6738] + C1CC(C1)(C(=O)[O-])C(=O)[O-].N.N.[Pt+2] [Carboplatin] (first compound max 10 µM, 7x7, partner max 10 µM) | -0.0402 | -0.0073 | -0.0265 | -0.0366 | -0.04 | -0.0617 | -0.104 | -0.0444 | -0.0422 | -0.051 | -0.0369 | -0.0554 | -0.0326 | -0.0443 | -0.0615 | 0.0138 | -0.005 | -0.0517 | -0.0806 | -0.0465
10 | C[C@@H]1COCCN1c1cc(C2([S@](C)(=N)=O)CC2)nc(-c2ccnc3[nH]ccc23)n1 [AZD6738] + Nc1ccn([C@@H]2O[C@H](CO)[C@@H](O)C2(F)F)c(=O)n1 [Gemcitabine] (first compound max 10 µM, 7x7, partner max 0.3 µM) | -0.0064 | 0.0393 | -0.0049 | 0.0294 | 0.128 | 0.0731 | -0.0824 | -0.012 | 0.086 | 0.0289 | -0.0138 | -0.0185 | 0.0434 | 0.0156 | 0.0982 | 0.0746 | 0.0586 | -0.0579 | 0.0028 | -0.108
11 | Cc1cc2ncnn2cc1Nc1ncc2c(n1)n(C1CCOCC1)c(=O)n2C [AZD7648] + COc1cc([C@@H]2c3cc4c(cc3[C@@H](O[C@@H]3O[C@@H]5CO[C@@H](C)O[C@H]5[C@H](O)[C@H]3O)[C@H]3COC(=O)[C@H]23)OCO4)cc(OC)c1O [Etoposide] (first compound max 10 µM, 7x7, partner max 10 µM) | 0.127 | 0.0384 | 0.0582 | 0.0004 | 0.0713 | -0.0236 | -0.0126 | 0.121 | 0.0597 | -0.0072 | 0.0243 | -0.0401 | 0.0079 | 0.0309 | 0.0299 | 0.0139 | -0.0163 | 0.184 | 0.0501 | -0.0395
12 | N#Cc1cnc(Nc2cc(NC[C@H]3CNCCO3)c(C(F)(F)F)cn2)cn1 [SRA737] + O=c1[nH]cc(F)c(=O)[nH]1 [5-Fluorouracil] (first compound max 10 µM, 7x7, partner max 20 µM) | -0.0187 |  | -0.0252 | -0.0358 | 0.0756 | -0.0423 | -0.0689 | -0.0626 | -0.0171 | 0.006 | -0.0569 | 0.0112 | -0.0443 | -0.0009 | -0.0501 | 0.0009 | -0.025 | 0.0243 | -0.0279 | 
